In assay [1] the target is T1, HDAC1 (Homo sapiens, UniProt Q13547).
T1 construct: purchased Enzolifesciences BML-AK511
Description: HDAC enzyme activity inhibition (in vitro), HDAC1 Fluorimetric Drug Discovery Assay Kit. In kind it is biochemical. A digest of the protocol:
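HDAC1 was tested at 100, 1000 and 10000 nM and recombinant human HDAC6 at 0.1, 1, 10, 100 and 1000 nM. Enzyme reactions ran 60 min at 37° C, then developer was added for 30 min at 37° C, and fluorescence (Ex 390, Em 460) was read.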

The target of assay [2] is T2, HDAC6 human recombinant (Homo sapiens, UniProt Q9UBN7).
T2 construct: purchased Calbiochem 382180
T2 sequence (Q9UBN7 1-1215): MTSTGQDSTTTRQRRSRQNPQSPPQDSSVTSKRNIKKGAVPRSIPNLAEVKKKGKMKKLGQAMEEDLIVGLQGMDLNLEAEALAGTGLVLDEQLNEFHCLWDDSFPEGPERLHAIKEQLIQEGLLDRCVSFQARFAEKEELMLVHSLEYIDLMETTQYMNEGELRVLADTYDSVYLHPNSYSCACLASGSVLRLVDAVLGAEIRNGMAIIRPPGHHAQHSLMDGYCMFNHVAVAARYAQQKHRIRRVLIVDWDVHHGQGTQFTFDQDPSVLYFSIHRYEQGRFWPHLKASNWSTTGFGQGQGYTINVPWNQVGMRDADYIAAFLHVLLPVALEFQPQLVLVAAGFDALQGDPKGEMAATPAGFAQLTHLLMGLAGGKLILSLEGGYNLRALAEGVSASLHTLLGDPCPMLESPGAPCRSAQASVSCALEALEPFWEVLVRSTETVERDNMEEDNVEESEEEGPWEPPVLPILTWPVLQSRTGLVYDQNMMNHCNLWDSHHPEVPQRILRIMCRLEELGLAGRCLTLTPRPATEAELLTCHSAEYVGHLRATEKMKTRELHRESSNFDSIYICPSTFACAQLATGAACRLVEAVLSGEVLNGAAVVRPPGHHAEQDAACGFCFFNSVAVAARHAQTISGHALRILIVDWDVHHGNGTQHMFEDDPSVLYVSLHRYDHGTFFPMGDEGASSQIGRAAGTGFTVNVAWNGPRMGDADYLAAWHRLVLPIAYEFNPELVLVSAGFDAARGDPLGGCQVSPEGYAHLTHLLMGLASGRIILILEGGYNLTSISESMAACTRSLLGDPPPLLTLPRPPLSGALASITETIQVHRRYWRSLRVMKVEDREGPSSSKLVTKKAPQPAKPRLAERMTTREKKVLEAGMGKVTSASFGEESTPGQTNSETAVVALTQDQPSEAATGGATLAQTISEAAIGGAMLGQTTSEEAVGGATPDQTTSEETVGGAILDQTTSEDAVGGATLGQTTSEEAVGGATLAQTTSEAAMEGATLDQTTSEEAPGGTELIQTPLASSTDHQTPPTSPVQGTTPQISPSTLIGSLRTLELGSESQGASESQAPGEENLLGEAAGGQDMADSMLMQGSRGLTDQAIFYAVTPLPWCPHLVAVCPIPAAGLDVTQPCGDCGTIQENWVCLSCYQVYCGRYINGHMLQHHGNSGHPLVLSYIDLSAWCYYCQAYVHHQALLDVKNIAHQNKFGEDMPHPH
The assay is described as follows: HDAC enzyme activity inhibition (in vitro), HDAC6 assay. In kind it is biochemical. Summed up: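 HDAC6 human recombinant enzyme with fluorimetric substrate; […]. Reaction 60 min at 37° C, then developer 30 min at 37° C; fluorescence read at Ex 390/Em 460.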

[3] abbreviates: samples at 100, 1000 and 10000 nM, 37° C. 60 minutes, fluorescence Ex 390, Em 460, read-out: HDAC1 IC50.
Setting [4] is: samples at 0.1, 1, 10, 100 and 1000 nM, 37° C. 60 minutes, fluorescence Ex 390, Em 460, read-out: HDAC6 IC50.

SMILES strings stand for the structures. Where two headings read alike, the source gives them in different places.

This is an account of results in patent publication US20230092890A1, “1, 3, 4-Oxadiazole derivative compounds as histone deacetylase 6 inhibitor, and the pharmaceutical composition comprising the same” (Chong Kun Dang Pharmaceutical Corp., priority 2019, published 2023).

T1 sequence (Q13547 whole entry): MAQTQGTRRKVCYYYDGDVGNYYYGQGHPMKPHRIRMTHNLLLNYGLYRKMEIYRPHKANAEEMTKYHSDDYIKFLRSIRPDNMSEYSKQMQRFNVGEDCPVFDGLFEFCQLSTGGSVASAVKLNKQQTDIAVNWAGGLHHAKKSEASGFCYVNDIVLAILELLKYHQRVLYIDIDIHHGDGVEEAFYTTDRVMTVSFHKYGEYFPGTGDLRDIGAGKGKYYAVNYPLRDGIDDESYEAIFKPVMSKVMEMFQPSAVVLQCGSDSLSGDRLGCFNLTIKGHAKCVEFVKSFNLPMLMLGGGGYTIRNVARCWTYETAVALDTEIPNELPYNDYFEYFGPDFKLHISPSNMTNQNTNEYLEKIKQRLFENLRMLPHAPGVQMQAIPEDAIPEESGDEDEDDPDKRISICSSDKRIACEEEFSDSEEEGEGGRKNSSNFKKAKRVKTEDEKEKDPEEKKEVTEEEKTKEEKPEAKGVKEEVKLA

For `Cn1c(=O)n(Cc2ccc(-c3nnc(C(F)F)o3)cn2)c2ccc(-c3ccsc3)cc21` [Compound 219, 1-((5-(5-(difluoromethyl)-1,3,4-oxadiazole-2-yl)pyridine-2-yl)methyl)-3-methyl-5-(thiophene-3-yl)-1,3-dihydro-2H-benzo[d]imidazole-2-one], the results for the 50% inhibitory concentration (IC50) in assay [1] (setting [3]) and in assay [2] (setting [4]) were above 10 µM and 33 nM, respectively.
For `Cn1c(=O)n(Cc2ccc(-c3nnc(C(F)F)o3)cn2)c2ccc(-c3ccc(S(C)(=O)=O)cc3)cc21` [Compound 220, 1-((5-(5-(difluoromethyl)-1,3,4-oxadiazole-2-yl)pyridine-2-yl)methyl)-3-methyl-5-(4-(methylsulfonyl)phenyl)-1,3-dihydro-2H-benzo[d]imidazole-2-one] the same measures were above 10 µM and 18 nM.
For the compound `Cn1c(=O)n(Cc2ccc(-c3nnc(C(F)F)o3)cn2)c2ccc(-c3ccn[nH]3)cc21` [Compound 221, 1-((5-(5-(difluoromethyl)-1,3,4-oxadiazole-2-yl)pyridine-2-yl)methyl)-3-methyl-5-(1H-pyrazole-5-yl)-1,3-dihydro-2H-benzo[d]imidazole-2-one], the IC50 in assay [1] (setting [3]) is above 10 µM; in assay [2] (setting [4]) it was 8 nM.
For the compound `Cn1nccc1-c1ccc2c(c1)n(C)c(=O)n2Cc1ccc(-c2nnc(C(F)F)o2)cn1` [Compound 222, 1-((5-(5-(difluoromethyl)-1,3,4-oxadiazole-2-yl)pyridine-2-yl)methyl)-3-methyl-5-(1-methyl-1H-pyrazole-5-yl)-1,3-dihydro-2H-benzo[d]imidazole-2-one], the IC50 was above 10 µM in assay [1] (setting [3]) and 21 nM in assay [2] (setting [4]).
In the same order, the values of `CN1CCC(n2c(=O)n(Cc3ccc(-c4nnc(C(F)F)o4)cn3)c3cc(F)c(-c4ccc(F)cc4F)cc32)CC1` [Compound 223, 1-((5-(5-(difluoromethyl)-1,3,4-oxadiazole-2-yl)pyridine-2-yl)methyl)-5-(2,4-difluorophenyl)-6-fluoro-3-(1-methylpiperidine-4-yl)-1,3-dihydro-2H-benzo[d]imidazole-2-one] are above 10 µM and 16 nM.
For `Cn1c(=O)n(Cc2ccc(-c3nnc(C(F)F)o3)cn2)c2cc(F)c(-c3cccc4[nH]ccc34)cc21` [Compound 224, 1-((5-(5-(difluoromethyl)-1,3,4-oxadiazole-2-yl)pyridine-2-yl)methyl)-6-fluoro-5-(1H-indole-4-yl)-3-methyl-1,3-dihydro-2H-benzo[d]imidazole-2-one] the same measures were above 10 µM and 8 nM.
For `Cn1c(=O)n(Cc2ccc(-c3nnc(C(F)F)o3)cn2)c2cc(F)c(-c3ccc(S(C)(=O)=O)cc3)cc21` [Compound 225, 1-((5-(5-(difluoromethyl)-1,3,4-oxadiazole-2-yl)pyridine-2-yl)methyl)-6-fluoro-3-methy 1-5-(4-(methylsulfonyl)phenyl)-1,3-dihydro-2H-benzo[d]imidazole-2-one] the same measures were above 10 µM and 11 nM.
For `Cn1ccc2cc(-c3cc4c(cc3F)n(Cc3ccc(-c5nnc(C(F)F)o5)cn3)c(=O)n4C)ccc21` [Compound 227, 1-((5-(5-(difluoromethyl)-1,3,4-oxadiazole-2-yl)pyridine-2-yl)methyl)-6-fluoro-3-methy 1-5-(1-methyl-1H-indole-5-yl)-1,3-dihydro-2H-benzo[d]imidazole-2-one], the IC50 is above 10 µM in assay [1] (setting [3]) and 32 nM in assay [2] (setting [4]).
Consider `O=c1oc2cc(Cl)c(Br)cc2n1Cc1ccc(-c2nnc(C(F)F)o2)cn1` [Compound 228, 5-bromo-6-chloro-3-((5-(5-(difluoromethyl)-1,3,4-oxadiazole-2-yl)pyridine-2-yl)methyl)benzo[d]oxazole-2(3H)-one], for which the IC50 in assay [1] (setting [3]) was above 10 µM; in assay [2] (setting [4]), 47 nM.
For `O=c1oc2cc(Cl)c(-c3cccnc3)cc2n1Cc1ccc(-c2nnc(C(F)F)o2)cn1` [Compound 229, 6-chloro-3-((5-(5-(difluoromethyl)-1,3,4-oxadiazole-2-yl)pyridine-2-yl)methyl)-5-(pyridine-3-yl)benzo[d]oxazole-2(3H)-one] the same measures were above 10 µM and 312 nM.
In the same order, the values of `O=c1sc2cc(Br)ccc2n1Cc1ccc(-c2nnc(C(F)F)o2)cn1` [Compound 230, 6-bromo-3-((5-(5-(difluoromethyl)-1,3,4-oxadiazole-2-yl)pyridine-2-yl)methyl)benzo[d]thiazole-2(3H)-one] are above 10 µM and 16 nM.
For `O=c1sc2cc(-c3cccnc3)ccc2n1Cc1ccc(-c2nnc(C(F)F)o2)cn1` [Compound 231, 3-((5-(5-(difluoromethyl)-1,3,4-oxadiazole-2-yl)pyridine-2-yl)methyl)-6-(pyridine-3-yl) benzo[d]thiazole-2(3H)-one] the same measures were above 10 µM and 9 nM.
As for `O=c1n(Cc2ccc(-c3nnc(C(F)F)o3)cn2)c2cc(Cl)ccc2n1C1CCN(CC(F)(F)C(F)(F)C(F)(F)F)CC1` [Compound 232, 5-chloro-3-((5-(5-(difluoromethyl)-1,3,4-oxadiazole-2-yl)pyridine-2-yl)methyl)-1-(1-(2,2,3,3,4,4,4-heptafluorobutyl)piperidine-4-yl)-1,3-dihydro-2H-benzo[d]imidazole-2-one], the results for the IC50 in assay [1] and in assay [2] were above 10 µM and 643 nM, respectively.
Turning to `CCC(F)(F)CN1CCC(n2c(=O)n(Cc3ccc(-c4nnc(C(F)F)o4)cn3)c3cc(Cl)ccc32)CC1` [Compound 233, 5-chloro-1-(1-(2,2-difluorobutyl)piperidine-4-yl)-3-((5-(5-(difluoromethyl)-1,3,4-oxadiazole-2-yl)pyridine-2-yl)methyl)-1,3-dihydro-2H-benzo[d]imidazole-2-one], the IC50 in assay [1] (setting [3]) was above 10 µM; in assay [2] (setting [4]) it was 107 nM.
For `CC(F)(F)CN1CCC(n2c(=O)n(Cc3ccc(-c4nnc(C(F)F)o4)cn3)c3cc(Cl)ccc32)CC1` [Compound 234, 5-chloro-3-((5-(5-(difluoromethyl)-1,3,4-oxadiazole-2-yl)pyridine-2-yl)methyl)-1-(1-(2,2-difluoropropyl)piperidine-4-yl)-1,3-dihydro-2H-benzo[d]imidazole-2-one] the same measures were above 10 µM and 54 nM.
As to `O=c1n(Cc2ccc(-c3nnc(C(F)F)o3)cn2)c2cc(Cl)ccc2n1C1CCN(CC(F)(F)C(F)F)CC1` [Compound 235, 5-chloro-3-((5-(5-(difluoromethyl)-1,3,4-oxadiazole-2-yl)pyridine-2-yl)methyl)-1-(1-(2,2,3,3-tetrafluoropropyl)piperidine-4-yl)-1,3-dihydro-2H-benzo[d]imidazole-2-one], the half-inhibitory concentration (IC50) was above 10 µM in assay [1] (setting [3]) and 103 nM in assay [2] (setting [4]).
In the same order, the values of `O=c1n(Cc2ccc(-c3nnc(C(F)F)o3)cn2)c2cc(Cl)ccc2n1C1CCN(CC(F)(F)F)CC1` [Compound 236, 5-chloro-3-((5-(5-(difluoromethyl)-1,3,4-oxadiazole-2-yl)pyridine-2-yl)methyl)-1-(1-(2,2,2-trifluoroethyl)piperidine-4-yl)-1,3-dihydro-2H-benzo[d]imidazole-2-one] are above 10 µM and 68 nM.
In the same order, the values of `CC(C)(C)OC(=O)n1ccc2cc(-c3ccc4c(c3)sc(=O)n4Cc3ccc(-c4nnc(C(F)F)o4)cn3)ccc21` [Compound 237, tert-butyl 5-(3-((5-(5-(difluoromethyl)-1,3,4-oxadiazole-2-yl)pyridine-2-yl)methyl)-2-oxo-2,3-dihydrobenzo[d]thiazole-6-yl)-1H-indole-1-carboxylate] are above 10 µM and 1140 nM.
